Test results reported in ChEMBL document CHEMBL2429763, “Nonbenzamidine acylsulfonamide tissue factor-factor VIIa inhibitors” (Bioorg Med Chem Lett, 2013).
Activity calls are given as the source filed them. No cut-off for these calls is given here.

Assays:
[1] = molecular target: Coagulation factor VII/tissue factor (Homo sapiens, UniProt P08709); test: Inhibition of human recombinant soluble tissue factor-factor 7a using H-D-Ile-Pro-Arg-pNA as substrate; format: protein-complex assay
Coagulation factor X = Coagulation factor X (Homo sapiens, UniProt P00742); test: Inhibition of factor 10a (unknown origin)
Trypsin = Trypsin (Homo sapiens, UniProt P07477+P07478+P35030); test: Inhibition of trypsin (unknown origin); format: protein assay
Prothrombin = Prothrombin (Homo sapiens, UniProt P00734); test: Inhibition of thrombin (unknown origin)
[2] = molecular target: T1, Coagulation factor VII/tissue factor (Homo sapiens) (UniProt P08709+P13726); test: Competitive inhibition of human recombinant soluble tissue factor-factor 7a using tripeptide as substrate; format: protein-complex assay
[3] = molecular target: T1, Coagulation factor VII/tissue factor (Homo sapiens); test: Noncompetitive inhibition of human recombinant soluble tissue factor-factor 7a using physiological substrate; format: protein-complex assay
[4] = Dissociation constant, pKa of the compound; format: physicochemical
[5] = Volume of distribution at steady state in dog at 0.2 mg/kg, iv; format: ADME, organism-based, Canis lupus familiaris; design: dose 0.2 mg/kg, route intravenous; conditions: in vivo, read-out: Vdss
[6] = Clearance in dog at 0.2 mg/kg, iv; format: ADME, organism-based, Canis lupus familiaris; design: dose 0.2 mg/kg, route intravenous; conditions: in vivo
[7] = Anticoagulant activity in plasma (unknown origin) assessed as concentration required to double prothrombin time; format: functional, unidentified
[8] = Half life in dog at 0.2 mg/kg, iv; format: ADME, organism-based, Canis lupus familiaris; design: dose 0.2 mg/kg, route intravenous; conditions: in vivo
[9] = Oral bioavailability in dog at 0.5 mg/kg; format: ADME, organism-based, Canis lupus familiaris; conditions: in vivo

Sequence of Coagulation factor X (P00742 41-179 limits assumed): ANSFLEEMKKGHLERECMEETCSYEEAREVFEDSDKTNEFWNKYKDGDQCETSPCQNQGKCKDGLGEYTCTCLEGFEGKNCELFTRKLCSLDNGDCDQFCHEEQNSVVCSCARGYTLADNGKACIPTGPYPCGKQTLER
Sequence of Coagulation factor X (P00742 235-488 limits assumed): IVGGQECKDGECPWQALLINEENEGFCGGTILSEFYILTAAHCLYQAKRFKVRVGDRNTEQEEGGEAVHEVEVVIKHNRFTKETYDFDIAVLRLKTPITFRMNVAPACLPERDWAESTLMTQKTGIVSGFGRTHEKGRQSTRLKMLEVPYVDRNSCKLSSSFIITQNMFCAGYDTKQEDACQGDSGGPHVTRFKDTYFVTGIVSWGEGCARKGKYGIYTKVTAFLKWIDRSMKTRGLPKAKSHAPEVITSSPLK
Sequence of Coagulation factor VII/tissue factor (P08709 61-212 limits assumed): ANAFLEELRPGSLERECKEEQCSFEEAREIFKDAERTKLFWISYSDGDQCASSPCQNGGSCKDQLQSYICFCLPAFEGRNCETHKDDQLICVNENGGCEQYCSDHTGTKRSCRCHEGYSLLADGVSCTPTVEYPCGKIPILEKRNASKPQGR
Sequence of Coagulation factor VII/tissue factor (P08709 213-466 limits assumed): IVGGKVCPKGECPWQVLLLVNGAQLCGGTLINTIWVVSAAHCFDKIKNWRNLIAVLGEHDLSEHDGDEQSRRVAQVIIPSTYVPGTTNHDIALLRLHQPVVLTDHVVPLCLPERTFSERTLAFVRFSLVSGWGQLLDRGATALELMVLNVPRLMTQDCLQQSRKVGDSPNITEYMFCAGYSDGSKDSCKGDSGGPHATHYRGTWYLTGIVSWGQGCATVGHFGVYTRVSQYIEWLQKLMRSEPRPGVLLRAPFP
Sequence of Coagulation factor VII/tissue factor (P13726 33-295 partner limits assumed): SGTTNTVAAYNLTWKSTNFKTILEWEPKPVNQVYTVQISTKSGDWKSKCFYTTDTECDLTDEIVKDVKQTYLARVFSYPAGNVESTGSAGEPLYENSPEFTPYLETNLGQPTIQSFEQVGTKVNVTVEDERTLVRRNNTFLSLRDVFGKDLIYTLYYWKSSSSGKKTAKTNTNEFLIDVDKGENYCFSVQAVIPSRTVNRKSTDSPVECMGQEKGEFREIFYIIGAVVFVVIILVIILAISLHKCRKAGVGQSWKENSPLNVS

| SMILES | Ki [1] [µM] | Ki (Coagulation factor X) [µM] | Ki (Trypsin) [µM] | Ki (Prothrombin) [µM] | also measured |
| --- | --- | --- | --- | --- | --- |
| CCOc1cc(C(Nc2ccc3c(N)nccc3c2)C(=O)NS(=O)(=O)c2cccc(O)c2)ccc1OC(C)C (centres undefined) | 0.026 | 5.5 | > 5 | 11 | – |
| CCOc1cc(C(Nc2ccc3c(N)nccc3c2)C(=O)NS(=O)(=O)c2cccc(S(N)(=O)=O)c2)ccc1OC(C)C (centres undefined) | 0.01 | 5.9 | > 5 | > 13 | – |
| CCOc1cc(C(Nc2ccc3c(N)nccc3c2)C(=O)NS(=O)(=O)c2ccccc2)ccc1OC(C)C (centres undefined) | – | 3.5 | 4.7 | 4.3 | inhibition [2]: Active; inhibition [3]: Active; pKa [4]: 8.9 |
| CCOc1cc(C(Nc2ccc3c(N)nccc3c2)C(=O)NS(=O)(=O)c2ccc(N)cc2)ccc1OC(C)C (centres undefined) | 0.009 | 5.8 | > 5 | 7.4 | – |
| CCOc1cc(C(Nc2ccc3nc(N)[nH]c3c2)C(=O)NS(=O)(=O)c2ccccc2)ccc1OC(C)C (centres undefined) | 0.67 | – | – | – | – |
| CCOc1cc(C(Nc2ccc3cnccc3c2)C(=O)NS(=O)(=O)c2cccc(S(=O)(=O)N(C)C)c2)ccc1OC(C)C (centres undefined) | 0.78 | 7.2 | > 5 | > 13 | – |
| CCOc1cc([C@H](Nc2ccc3c(N)nccc3c2)C(=O)NS(=O)(=O)c2ccccc2)ccc1OC(C)C | – | 8.2 | > 5 | > 13 | – |
| CCOc1cc(C(Nc2ccc3c(N)nccc3c2)C(=O)NS(=O)(=O)c2cccc(C(N)=O)c2)ccc1OC(C)C (centres undefined) | 0.018 | > 8 | > 5 | > 13 | – |
| CCOc1cc(C(Nc2ccc3c(N)nccc3c2)C(=O)NS(=O)(=O)c2cccc(CO)c2)ccc1OC(C)C (centres undefined) | 0.028 | > 8 | > 5 | 11 | – |
| CCOc1cc(C(Nc2ccc3c(N)ncnc3c2)C(=O)NS(=O)(=O)c2ccccc2)ccc1OC(C)C (centres undefined) | 0.39 | – | – | – | – |
| CCOc1cc(C(Nc2ccc3c(N)n[nH]c3c2)C(=O)NS(=O)(=O)c2ccccc2)ccc1OC(C)C (centres undefined) | 2.9 | – | – | – | – |
| CCOc1cc(C(Nc2ccc3cnccc3c2)C(=O)NS(=O)(=O)c2ccc(S(N)(=O)=O)cc2)ccc1OC(C)C (centres undefined) | 0.32 | > 8 | > 5 | > 13 | – |
| CCOc1cc(C(Nc2ccc3cnccc3c2)C(=O)NS(=O)(=O)c2ccccc2S(=O)(=O)CC)ccc1OC(C)C (centres undefined) | 0.006 | > 8 | > 5 | 9.4 | – |
| CCOc1cc(C(Nc2ccc3cnccc3c2)C(=O)NS(=O)(=O)c2cccc(S(C)(=O)=O)c2)ccc1OC(C)C (centres undefined) | 0.145 | > 8 | > 5 | > 13 | – |
| CCOc1cc(C(Nc2ccc3c(N)nccc3c2)C(=O)NS(=O)(=O)c2ccc(O)cc2)ccc1OC(C)C (centres undefined) | 0.007 | > 8 | > 5 | > 13 | – |
| CCOc1cc(C(Nc2ccc3c(N)nccc3c2)C(=O)NS(=O)(=O)c2cccc(N)c2)ccc1OC(C)C (centres undefined) | 0.048 | > 8 | > 5 | > 13 | – |
| CCOc1cc(C(Nc2ccc3cnccc3c2)C(=O)NS(=O)(=O)c2ccc(S(C)(=O)=O)cc2)ccc1OC(C)C (centres undefined) | 8.1 | > 8 | > 5 | > 13 | – |
| CCOc1cc([C@@H](Nc2ccc3cnccc3c2)C(=O)NS(=O)(=O)c2ccccc2)ccc1OC(C)C | 0.044 | > 8 | > 5 | > 13 | Vd [5]: 0.6 L/kg; clearance [6]: 9.3 mL/min/kg; 2PT [7]: >80 µM; half-life [8]: 0.9 h; bioavailability [9]: 36% |
| CCOc1cc(C(Nc2ccc3cnccc3c2)C(=O)NS(=O)(=O)c2ccccc2S(C)(=O)=O)ccc1OC(C)C (centres undefined) | 0.012 | > 8 | > 5 | 10.3 | 2PT [7]: 76 µM |
| CCOc1cc([C@@H](Nc2ccc3c(N)nccc3c2)C(=O)NS(=O)(=O)c2cccc(S(N)(=O)=O)c2)ccc1OC(C)C | 0.0028 | 5.6 | > 5 | 9.4 | 2PT [7]: 14 µM |
| CCOc1cc(C(Nc2ccc(C(=N)N)cc2)C(=O)NS(=O)(=O)c2ccccc2)ccc1OC(C)C (centres undefined) | 0.0013 | – | – | – | 2PT [7]: 4 µM; inhibition [2]: Active; inhibition [3]: Active |
| CCOc1cc(C(Nc2ccc3c(N)noc3c2)C(=O)NS(=O)(=O)c2ccccc2)ccc1OC(C)C (centres undefined) | 1.94 | – | – | – | – |
| CCOc1cc([C@@H](Nc2ccc3c(N)nccc3c2)C(=O)NS(=O)(=O)c2ccccc2)ccc1OC(C)C | – | 7.3 | > 5 | 6.9 | Vd [5]: 1.5 L/kg; clearance [6]: 24 mL/min/kg; 2PT [7]: 36 µM; half-life [8]: 1.5 h; bioavailability [9]: 4% |
| CCOc1cc(C(Nc2ccc3cnccc3c2)C(=O)NS(=O)(=O)c2ccccc2S(N)(=O)=O)ccc1OC(C)C (centres undefined) | 0.073 | > 8 | > 5 | > 13 | – |
| CCOc1cc(C(Nc2ccc3cnccc3c2)C(=O)NS(=O)(=O)c2cccc(S(N)(=O)=O)c2)ccc1OC(C)C (centres undefined) | 0.032 | > 8 | > 5 | > 13 | – |
| CCOc1cc(C(Nc2ccc3cnccc3c2)C(=O)NS(=O)(=O)c2cccc(S(=O)(=O)NC)c2)ccc1OC(C)C (centres undefined) | 0.25 | 7 | > 5 | > 13 | – |
| CCOc1cc([C@@H](Nc2ccc3cnccc3c2)C(=O)NS(=O)(=O)c2cccc(S(N)(=O)=O)c2)ccc1OC(C)C | 0.017 | > 8 | > 5 | > 13 | – |
| CCOc1cc(C(Nc2ccc3c(N)nccc3c2)C(=O)NS(=O)(=O)c2ccc(C)cc2)ccc1OC(C)C (centres undefined) | 0.197 | 3.05 | 3.04 | 2.9 | – |
| CCOc1cc(C(Nc2ccc3cnccc3c2)C(=O)NS(=O)(=O)c2ccccc2)ccc1OC(C)C (centres undefined) | 0.07 | 5.4 | > 5 | > 13 | inhibition [2]: Active; inhibition [3]: Active; pKa [4]: 7.8 |
